Test results taken from ChEMBL document CHEMBL4507304, “Data for DCP probe TP-021” (2021).

Experiments:
[1] = molecular target: Angiopoietin-1 receptor (Homo sapiens) (UniProt Q02763); conditions: Compound concentration 1000.0 nM
[2] = molecular target: Mitogen-activated protein kinase 15 (Homo sapiens) (UniProt Q8TD08); conditions: Compound concentration 1000.0 nM
[3] = molecular target: Receptor tyrosine-protein kinase erbB-2 (Homo sapiens) (UniProt P04626); conditions: Compound concentration 1000.0 nM
[4] = molecular target: Activin receptor type-2B (Homo sapiens) (UniProt Q13705); conditions: Compound concentration 1000.0 nM
[5] = molecular target: Cyclin-dependent kinase 2 (Homo sapiens) (UniProt P24941); conditions: Compound concentration 1000.0 nM
[6] = molecular target: Tyrosine-protein kinase ITK/TSK (Homo sapiens) (UniProt Q08881); conditions: Compound concentration 1000.0 nM
[7] = molecular target: Glycogen synthase kinase-3 beta (Homo sapiens) (UniProt P49841); conditions: Compound concentration 1000.0 nM
[8] = molecular target: Mitogen-activated protein kinase kinase kinase 14 (Homo sapiens) (UniProt Q99558); conditions: Compound concentration 1000.0 nM
[9] = molecular target: Casein kinase I isoform alpha (Homo sapiens) (UniProt P48729); conditions: Compound concentration 1000.0 nM
[10] = molecular target: Mitogen-activated protein kinase kinase kinase 5 (Homo sapiens) (UniProt Q99683); conditions: Compound concentration 1000.0 nM
[11] = molecular target: Serine/threonine-protein kinase/endoribonuclease IRE1 (Homo sapiens) (UniProt O75460); conditions: Compound concentration 1000.0 nM
[12] = molecular target: Serine/threonine-protein kinase WNK1 (Homo sapiens) (UniProt Q9H4A3); conditions: Compound concentration 1000.0 nM
[13] = molecular target: Serine/threonine-protein kinase Sgk1 (Homo sapiens) (UniProt O00141); conditions: Compound concentration 1000.0 nM
[14] = molecular target: Alpha-1B adrenergic receptor (Homo sapiens) (UniProt P35368); conditions: Compound concentration 10.0 uM
[15] = molecular target: Serine/threonine-protein kinase TAO2 (Homo sapiens) (UniProt Q9UL54); conditions: Compound concentration 1000.0 nM
[16] = molecular target: Dual specificity mitogen-activated protein kinase kinase 6 (Homo sapiens) (UniProt P52564); conditions: Compound concentration 1000.0 nM
[17] = molecular target: Ribosomal protein S6 kinase alpha-4 (Homo sapiens) (UniProt O75676); conditions: Compound concentration 1000.0 nM
[18] = molecular target: G protein-coupled receptor kinase 4 (Homo sapiens) (UniProt P32298); conditions: Compound concentration 1000.0 nM
[19] = molecular target: Myosin-IIIa (Homo sapiens) (UniProt Q8NEV4); conditions: Compound concentration 1000.0 nM
[20] = molecular target: Non-receptor tyrosine-protein kinase TYK2 (Homo sapiens) (UniProt P29597); conditions: Compound concentration 1000.0 nM
[21] = molecular target: Phosphatidylinositol 4,5-bisphosphate 3-kinase catalytic subunit beta isoform (Homo sapiens) (UniProt P42338); conditions: Compound concentration 1000.0 nM
[22] = molecular target: Phosphatidylinositol 4,5-bisphosphate 3-kinase catalytic subunit alpha isoform (Homo sapiens) (UniProt P42336); conditions: Compound concentration 1000.0 nM
[23] = molecular target: Receptor-interacting serine/threonine-protein kinase 2 (Homo sapiens) (UniProt O43353); conditions: Compound concentration 1000.0 nM
[24] = molecular target: Insulin receptor (Homo sapiens) (UniProt P06213); conditions: Compound concentration 1000.0 nM
[25] = molecular target: Serine/threonine-protein kinase 3 (Homo sapiens) (UniProt Q13188); conditions: Compound concentration 1000.0 nM
[26] = molecular target: Tyrosine-protein kinase TXK (Homo sapiens) (UniProt P42681); conditions: Compound concentration 1000.0 nM
[27] = system: Receptor-type tyrosine-protein kinase FLT3 (Homo sapiens), P36888 [D835H]; conditions: Compound concentration 1000.0 nM
[28] = molecular target: Fibroblast growth factor receptor 4 (Homo sapiens) (UniProt P22455); conditions: Compound concentration 1000.0 nM
[29] = molecular target: Sodium-dependent dopamine transporter (Homo sapiens) (UniProt Q01959); conditions: Compound concentration 10.0 uM
[30] = molecular target: Protein kinase C epsilon type (Homo sapiens) (UniProt Q02156); conditions: Compound concentration 1000.0 nM
[31] = molecular target: cAMP-dependent protein kinase catalytic subunit PRKX (Homo sapiens) (UniProt P51817); conditions: Compound concentration 1000.0 nM
[32] = molecular target: Myosin light chain kinase, smooth muscle (Homo sapiens) (UniProt Q15746); conditions: Compound concentration 1000.0 nM
[33] = molecular target: High affinity nerve growth factor receptor (Homo sapiens) (UniProt P04629); conditions: Compound concentration 1000.0 nM
[34] = molecular target: Casein kinase I isoform gamma-2 (Homo sapiens) (UniProt P78368); conditions: Compound concentration 1000.0 nM
[35] = molecular target: Serine/threonine-protein kinase Nek5 (Homo sapiens) (UniProt Q6P3R8); conditions: Compound concentration 1000.0 nM
[36] = molecular target: Ephrin type-A receptor 5 (Homo sapiens) (UniProt P54756); conditions: Compound concentration 1000.0 nM
[37] = molecular target: Dual specificity tyrosine-phosphorylation-regulated kinase 1B (Homo sapiens) (UniProt Q9Y463); conditions: Compound concentration 1000.0 nM
[38] = molecular target: Dual specificity mitogen-activated protein kinase kinase 1 (Homo sapiens) (UniProt Q02750); conditions: Compound concentration 1000.0 nM
[39] = molecular target: Cyclin-dependent kinase 14 (Homo sapiens) (UniProt O94921); conditions: Compound concentration 1000.0 nM
[40] = system: Tyrosine-protein kinase ABL1 (Homo sapiens), P00519 [F317I]; conditions: Compound concentration 1000.0 nM
[41] = molecular target: Receptor-interacting serine/threonine-protein kinase 4 (Homo sapiens) (UniProt P57078); conditions: Compound concentration 1000.0 nM
[42] = system: Tyrosine-protein kinase ABL1 (Homo sapiens), P00519 [H396P]; conditions: Compound concentration 1000.0 nM
Rattus norvegicus = species: Rattus norvegicus; conditions: Compound concentration 10.0 uM
[43] = molecular target: Maternal embryonic leucine zipper kinase (Homo sapiens) (UniProt Q14680); conditions: Compound concentration 1000.0 nM
[44] = molecular target: Serine/threonine-protein kinase 36 (Homo sapiens) (UniProt Q9NRP7); conditions: Compound concentration 1000.0 nM
[45] = molecular target: Muscle, skeletal receptor tyrosine-protein kinase (Homo sapiens) (UniProt O15146); conditions: Compound concentration 1000.0 nM
Sequence of Muscle, skeletal receptor tyrosine-protein kinase (Homo sapiens) (O15146 whole entry): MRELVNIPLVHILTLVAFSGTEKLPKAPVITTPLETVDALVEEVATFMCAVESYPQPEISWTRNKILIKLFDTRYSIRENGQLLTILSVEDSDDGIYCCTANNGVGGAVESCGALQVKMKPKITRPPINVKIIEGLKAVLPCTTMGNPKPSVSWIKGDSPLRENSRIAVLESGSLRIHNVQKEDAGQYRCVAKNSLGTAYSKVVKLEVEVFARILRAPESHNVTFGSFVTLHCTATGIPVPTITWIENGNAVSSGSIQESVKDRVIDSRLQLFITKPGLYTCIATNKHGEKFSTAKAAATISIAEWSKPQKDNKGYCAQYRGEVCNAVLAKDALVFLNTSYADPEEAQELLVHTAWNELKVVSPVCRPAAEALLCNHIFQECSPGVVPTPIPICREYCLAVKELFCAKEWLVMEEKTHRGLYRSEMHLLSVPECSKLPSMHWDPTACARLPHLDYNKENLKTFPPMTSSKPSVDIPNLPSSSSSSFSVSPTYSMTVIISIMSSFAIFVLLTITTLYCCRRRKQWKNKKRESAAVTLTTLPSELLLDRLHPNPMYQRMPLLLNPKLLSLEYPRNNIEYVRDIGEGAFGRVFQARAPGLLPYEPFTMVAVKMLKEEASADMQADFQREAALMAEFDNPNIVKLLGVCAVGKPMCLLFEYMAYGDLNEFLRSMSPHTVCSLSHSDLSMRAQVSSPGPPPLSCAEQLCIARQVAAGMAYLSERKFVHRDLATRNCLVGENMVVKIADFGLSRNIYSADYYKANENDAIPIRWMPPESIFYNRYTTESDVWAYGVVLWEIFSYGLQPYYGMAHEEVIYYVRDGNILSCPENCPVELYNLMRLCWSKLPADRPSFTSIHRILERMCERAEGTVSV

Sequence of Dual specificity mitogen-activated protein kinase kinase 1 (Homo sapiens) (Q02750 whole entry): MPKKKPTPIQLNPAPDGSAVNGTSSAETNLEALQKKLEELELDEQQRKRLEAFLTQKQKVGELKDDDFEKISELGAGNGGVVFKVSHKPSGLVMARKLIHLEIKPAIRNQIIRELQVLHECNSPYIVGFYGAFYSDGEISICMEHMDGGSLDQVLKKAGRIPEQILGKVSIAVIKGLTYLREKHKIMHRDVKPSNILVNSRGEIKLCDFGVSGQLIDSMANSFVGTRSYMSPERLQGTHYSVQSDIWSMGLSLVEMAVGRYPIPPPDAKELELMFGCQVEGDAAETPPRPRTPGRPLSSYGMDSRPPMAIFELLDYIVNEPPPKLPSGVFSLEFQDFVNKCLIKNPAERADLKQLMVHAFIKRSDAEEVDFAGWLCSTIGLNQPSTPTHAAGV
Sequence of Fibroblast growth factor receptor 4 (Homo sapiens) (P22455 22-802 limits assumed): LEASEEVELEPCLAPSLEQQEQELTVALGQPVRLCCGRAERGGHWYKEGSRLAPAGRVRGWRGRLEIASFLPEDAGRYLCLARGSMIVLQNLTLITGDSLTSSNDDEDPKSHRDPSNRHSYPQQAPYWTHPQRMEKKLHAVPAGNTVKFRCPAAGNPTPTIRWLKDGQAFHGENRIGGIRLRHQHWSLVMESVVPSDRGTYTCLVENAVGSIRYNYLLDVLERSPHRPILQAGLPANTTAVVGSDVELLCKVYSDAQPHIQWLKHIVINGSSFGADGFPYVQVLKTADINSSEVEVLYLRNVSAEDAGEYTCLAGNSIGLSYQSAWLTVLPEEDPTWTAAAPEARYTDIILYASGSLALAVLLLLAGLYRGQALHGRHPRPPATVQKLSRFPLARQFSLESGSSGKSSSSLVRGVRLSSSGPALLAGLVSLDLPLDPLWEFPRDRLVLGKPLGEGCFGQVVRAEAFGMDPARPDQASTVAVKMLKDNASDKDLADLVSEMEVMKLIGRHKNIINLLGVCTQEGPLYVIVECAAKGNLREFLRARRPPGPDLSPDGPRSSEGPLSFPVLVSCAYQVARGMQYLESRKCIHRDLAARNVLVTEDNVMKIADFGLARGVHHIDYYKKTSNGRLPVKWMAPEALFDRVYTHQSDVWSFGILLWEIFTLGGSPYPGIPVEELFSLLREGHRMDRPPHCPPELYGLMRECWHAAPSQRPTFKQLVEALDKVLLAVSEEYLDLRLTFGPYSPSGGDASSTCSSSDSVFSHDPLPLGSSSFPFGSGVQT
Sequence of Myosin light chain kinase, smooth muscle (Homo sapiens) (Q15746 whole entry): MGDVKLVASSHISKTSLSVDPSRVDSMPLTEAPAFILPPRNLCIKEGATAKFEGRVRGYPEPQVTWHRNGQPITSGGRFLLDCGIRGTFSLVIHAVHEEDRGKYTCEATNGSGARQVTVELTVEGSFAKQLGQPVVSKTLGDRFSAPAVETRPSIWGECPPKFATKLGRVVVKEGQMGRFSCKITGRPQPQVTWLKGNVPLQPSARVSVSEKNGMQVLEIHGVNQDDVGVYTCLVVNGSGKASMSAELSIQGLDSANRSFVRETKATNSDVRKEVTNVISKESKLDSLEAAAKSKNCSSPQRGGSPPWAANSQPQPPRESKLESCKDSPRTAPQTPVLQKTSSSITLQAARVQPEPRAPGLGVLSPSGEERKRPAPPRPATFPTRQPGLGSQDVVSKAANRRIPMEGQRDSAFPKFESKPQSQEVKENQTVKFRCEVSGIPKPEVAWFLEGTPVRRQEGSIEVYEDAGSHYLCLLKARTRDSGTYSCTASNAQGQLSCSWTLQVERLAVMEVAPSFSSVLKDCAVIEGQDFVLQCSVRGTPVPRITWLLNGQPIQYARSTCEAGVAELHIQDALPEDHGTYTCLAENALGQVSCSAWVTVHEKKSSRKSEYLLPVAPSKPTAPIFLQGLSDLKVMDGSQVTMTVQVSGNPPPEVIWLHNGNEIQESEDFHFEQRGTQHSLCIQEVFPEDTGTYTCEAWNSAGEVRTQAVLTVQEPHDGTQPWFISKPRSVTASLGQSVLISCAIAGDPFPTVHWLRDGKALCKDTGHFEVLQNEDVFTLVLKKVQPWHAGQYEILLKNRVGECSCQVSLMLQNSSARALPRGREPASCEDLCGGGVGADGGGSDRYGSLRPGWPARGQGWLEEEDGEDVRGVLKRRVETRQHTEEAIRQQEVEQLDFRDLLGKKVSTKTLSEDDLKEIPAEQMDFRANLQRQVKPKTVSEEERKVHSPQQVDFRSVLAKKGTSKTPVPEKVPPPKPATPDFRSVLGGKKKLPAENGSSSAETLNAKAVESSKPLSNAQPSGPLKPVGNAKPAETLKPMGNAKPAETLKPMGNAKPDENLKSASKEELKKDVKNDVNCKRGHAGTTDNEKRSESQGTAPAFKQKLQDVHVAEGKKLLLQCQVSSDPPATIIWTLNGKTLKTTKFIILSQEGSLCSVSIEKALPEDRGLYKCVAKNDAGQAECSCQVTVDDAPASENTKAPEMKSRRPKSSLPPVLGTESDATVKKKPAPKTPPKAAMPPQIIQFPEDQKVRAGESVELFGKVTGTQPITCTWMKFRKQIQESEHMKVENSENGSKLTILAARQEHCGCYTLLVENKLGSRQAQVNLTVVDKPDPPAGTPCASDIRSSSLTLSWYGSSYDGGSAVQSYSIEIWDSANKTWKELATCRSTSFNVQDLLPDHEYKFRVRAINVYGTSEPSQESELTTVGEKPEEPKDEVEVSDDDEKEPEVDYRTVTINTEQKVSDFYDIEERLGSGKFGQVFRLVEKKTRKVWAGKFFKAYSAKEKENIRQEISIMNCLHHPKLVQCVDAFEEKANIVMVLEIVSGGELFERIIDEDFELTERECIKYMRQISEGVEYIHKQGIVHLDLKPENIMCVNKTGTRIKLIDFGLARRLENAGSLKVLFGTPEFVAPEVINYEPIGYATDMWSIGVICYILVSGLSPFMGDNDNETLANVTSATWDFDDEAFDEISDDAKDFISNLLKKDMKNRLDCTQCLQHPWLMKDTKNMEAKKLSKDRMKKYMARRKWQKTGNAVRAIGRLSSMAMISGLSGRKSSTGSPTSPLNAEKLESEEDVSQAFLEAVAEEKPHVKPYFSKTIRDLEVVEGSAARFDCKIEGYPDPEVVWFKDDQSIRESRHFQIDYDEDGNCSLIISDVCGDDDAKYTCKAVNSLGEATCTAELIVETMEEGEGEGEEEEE
Sequence of Mitogen-activated protein kinase kinase kinase 14 (Homo sapiens) (Q99558 whole entry, looked up, canonical isoform): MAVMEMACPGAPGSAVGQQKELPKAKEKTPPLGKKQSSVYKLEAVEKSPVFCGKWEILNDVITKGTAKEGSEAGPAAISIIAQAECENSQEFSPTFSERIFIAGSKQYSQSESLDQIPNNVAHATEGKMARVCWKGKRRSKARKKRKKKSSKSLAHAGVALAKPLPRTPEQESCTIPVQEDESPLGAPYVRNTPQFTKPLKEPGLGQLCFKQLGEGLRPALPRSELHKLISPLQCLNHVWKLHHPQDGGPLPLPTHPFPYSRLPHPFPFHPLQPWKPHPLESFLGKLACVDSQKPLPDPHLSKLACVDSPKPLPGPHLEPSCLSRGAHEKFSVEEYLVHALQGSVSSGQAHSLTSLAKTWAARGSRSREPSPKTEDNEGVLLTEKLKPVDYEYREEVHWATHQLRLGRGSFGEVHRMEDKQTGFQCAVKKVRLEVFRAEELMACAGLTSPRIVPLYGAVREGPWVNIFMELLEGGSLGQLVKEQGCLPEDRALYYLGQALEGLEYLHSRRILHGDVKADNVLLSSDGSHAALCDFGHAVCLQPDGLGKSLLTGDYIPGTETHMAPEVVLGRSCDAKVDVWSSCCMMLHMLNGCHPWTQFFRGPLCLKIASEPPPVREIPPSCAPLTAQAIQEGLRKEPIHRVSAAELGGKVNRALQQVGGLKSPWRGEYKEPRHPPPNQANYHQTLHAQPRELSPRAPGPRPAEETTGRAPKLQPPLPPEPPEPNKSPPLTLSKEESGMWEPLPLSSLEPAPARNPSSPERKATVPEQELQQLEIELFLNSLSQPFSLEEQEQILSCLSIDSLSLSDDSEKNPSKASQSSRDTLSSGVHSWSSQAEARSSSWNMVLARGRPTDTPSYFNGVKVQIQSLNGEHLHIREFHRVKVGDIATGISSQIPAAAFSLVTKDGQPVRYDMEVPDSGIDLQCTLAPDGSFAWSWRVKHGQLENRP

O=C1CCc2cc(Nc3cc(OC4CCOCC4)c([N+](=O)[O-])cc3Cl)ccc2N1
inactive: residual activity [1] 76% | residual activity [2] 96% | residual activity [3] 100% | residual activity [4] 89% | residual activity [5] 88% | residual activity [6] 95% | residual activity [7] 96% | residual activity [8] 81% | residual activity [9] 100% | residual activity [10] 84% | residual activity [11] 99% | residual activity [12] 86% | residual activity [13] 100% | inhibition [14] 17.2% | residual activity [15] 82% | residual activity [16] 69% | residual activity [17] 72% | residual activity [18] 100% | residual activity [19] 99% | residual activity [20] 94% | residual activity [21] 97% | residual activity [22] 79% | residual activity [23] 53% | residual activity [24] 93% | residual activity [25] 100% | residual activity [26] 79% | residual activity [27] 99% | residual activity [28] 81% | inhibition [29] 13.6% | residual activity [30] 93% | residual activity [31] 100% | residual activity [32] 94% | residual activity [33] 94% | residual activity [34] 88% | residual activity [35] 96% | residual activity [36] 93% | residual activity [37] 74% | residual activity [38] 72% | residual activity [39] 100% | residual activity [40] 100% | residual activity [41] 100% | residual activity [42] 89% | inhibition (Rattus norvegicus) 13.4% | residual activity [43] 77% | residual activity [44] 96% | residual activity [45] 100%

N#Cc1ccc(Nc2ccc3[nH]c(=O)[nH]c3c2)c(Cl)c1
inactive: residual activity [1] 85% | residual activity [2] 100% | residual activity [3] 100% | residual activity [4] 81% | residual activity [5] 93% | residual activity [6] 100% | residual activity [7] 96% | residual activity [8] 100% | residual activity [9] 100% | residual activity [10] 90% | residual activity [11] 86% | residual activity [12] 100% | residual activity [13] 100% | inhibition [14] 10% | residual activity [15] 100% | residual activity [16] 80% | residual activity [17] 95% | residual activity [18] 100% | residual activity [19] 97% | residual activity [20] 100% | residual activity [21] 100% | residual activity [22] 77% | residual activity [23] 70% | residual activity [24] 95% | residual activity [25] 100% | residual activity [26] 87% | residual activity [27] 100% | residual activity [28] 100% | inhibition [29] 14% | residual activity [30] 100% | residual activity [31] 100% | residual activity [32] 96% | residual activity [33] 93% | residual activity [34] 100% | residual activity [35] 100% | residual activity [36] 100% | residual activity [37] 83% | residual activity [38] 88% | residual activity [39] 100% | residual activity [40] 92% | residual activity [41] 89% | residual activity [42] 93% | inhibition (Rattus norvegicus) 3.22% | residual activity [43] 95% | residual activity [44] 100% | residual activity [45] 100%
